In this test the target is T1, human TRH-DE (Homo sapiens, UniProt Q9UKU6).
T1 construct: expressed in transfected cells; host or cells: Expi 293 cells (transient expression), membrane fraction
T1 sequence (Q9UKU6 1-1069): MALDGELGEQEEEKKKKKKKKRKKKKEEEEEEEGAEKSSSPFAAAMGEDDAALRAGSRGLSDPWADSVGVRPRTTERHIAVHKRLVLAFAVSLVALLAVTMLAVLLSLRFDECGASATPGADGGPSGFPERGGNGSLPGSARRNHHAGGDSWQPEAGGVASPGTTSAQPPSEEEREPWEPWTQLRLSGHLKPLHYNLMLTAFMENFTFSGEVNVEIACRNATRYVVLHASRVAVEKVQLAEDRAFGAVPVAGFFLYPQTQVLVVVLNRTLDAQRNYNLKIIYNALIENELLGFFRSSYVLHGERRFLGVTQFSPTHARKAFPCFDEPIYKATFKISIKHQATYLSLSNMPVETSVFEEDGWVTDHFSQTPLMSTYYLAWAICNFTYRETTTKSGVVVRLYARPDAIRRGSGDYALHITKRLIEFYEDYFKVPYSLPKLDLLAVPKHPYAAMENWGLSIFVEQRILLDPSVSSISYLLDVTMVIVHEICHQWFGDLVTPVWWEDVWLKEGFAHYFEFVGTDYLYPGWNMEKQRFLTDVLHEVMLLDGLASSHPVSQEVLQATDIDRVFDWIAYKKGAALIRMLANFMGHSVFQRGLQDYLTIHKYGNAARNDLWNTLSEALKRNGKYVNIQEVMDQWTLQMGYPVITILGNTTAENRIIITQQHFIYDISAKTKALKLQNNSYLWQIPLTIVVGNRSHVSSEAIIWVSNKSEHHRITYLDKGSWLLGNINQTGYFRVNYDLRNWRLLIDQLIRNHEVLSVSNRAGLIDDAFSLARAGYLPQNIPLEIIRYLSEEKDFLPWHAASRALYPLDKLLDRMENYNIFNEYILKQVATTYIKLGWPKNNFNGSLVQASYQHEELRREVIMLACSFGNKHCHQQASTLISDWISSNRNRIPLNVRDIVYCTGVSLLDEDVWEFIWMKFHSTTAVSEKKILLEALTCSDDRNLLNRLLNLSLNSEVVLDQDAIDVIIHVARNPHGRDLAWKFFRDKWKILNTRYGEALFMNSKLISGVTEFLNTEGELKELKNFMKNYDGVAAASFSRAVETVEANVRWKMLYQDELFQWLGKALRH
Description: TRH-DE inhibition test (RapidFire MS measurement of product Cyclo (His-Pro)). In kind it is biochemical. The settings on record: membrane fraction of Expi 293 cells expressing human TRH-DE; 10 μM TRH substrate; room temperature, 2 hours; 16-point concentration test. The gist of the method:
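Membrane fraction from Expi 293 cells transiently expressing human TRH-DE, at 4 μg/ml in phosphate buffer pH 7.4 with 200 μM bacitracin, reacted with compound and 10 μM substrate for 2 h at room temperature. Cyclo(His-Pro) measured by RapidFire MS against an isotope internal standard. IC50 from 16-point curves.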
By IC50 is commonly meant the concentration that gives 50% inhibition. A low value points to inhibition by little substance. As to `CCCN(C(=O)c1cccnc1OC)C1CC2(C1)CN(S(=O)(=O)c1ccccc1F)C2` [Example 416], half-maximal inhibition (IC50) was put at 676 nM.
The figure for `CCCN(C(=O)c1cccnc1OC)C1CC2(C1)CN(S(=O)(=O)c1sccc1C)C2` [Example 417] is 690 nM.
For the compound `CCCN(C(=O)c1cccnc1OC)C1CC2(C1)CN(S(=O)(=O)c1cc(C)ccc1F)C2` [Example 418], the midpoint of inhibition, the IC50, lay at 75 nM.
Compound `CCCN(C(=O)c1cccnc1OC)C1CC2(C1)CN(S(=O)(=O)c1cccc(-c3ccccc3)c1)C2` [Example 419] yielded an IC50 of 685 nM.
Turning to `CCCN(C(=O)c1cccnc1OC)C1CC2(C1)CN(S(=O)(=O)c1cccc(C)c1F)C2` [Example 420], the IC50 turned out to be 701 nM.
Compound `CCCN(C(=O)c1cccnc1OC)C1CC2(C1)CN(S(=O)(=O)c1cc(OC)ccc1F)C2` [Example 421] registered an IC50 of 480 nM.
Consider `COCC1C(c2ccccc2)=CC(=O)N1C1CC2(C1)CN(S(=O)(=O)c1ccccc1F)C2` (stereo not drawn) [Example 422], for which half-maximal inhibition (IC50) was put at 218 nM.
Take `CCCN(C(=O)c1cccnc1OC)C1CC2(C1)CN(S(=O)(=O)c1ccccc1)C2` [Example 423, N-[2-(benzenesulfonyl)-2-azaspiro[3.3]heptan-6-yl]-2-methoxy-N-propylpyridine-3-carboxamide]: the midpoint of inhibition, the IC50, lay at 974 nM.
The figure for `CCCN(C(=O)c1cccnc1OCC)C1CC2(C1)CN(S(=O)(=O)c1cccc(C)c1)C2` [Example 424] is 795 nM; for `CCCN(C(=O)c1ccccc1OC)C1CC2(C1)CN(S(=O)(=O)c1cccc(C)c1)C2` [Example 425] it is 860 nM; for `CCCN(C(=O)c1ccnc2[nH]cnc12)C1CC2(C1)CN(S(=O)(=O)c1cc(C)ccc1F)C2` [Example 426] it is 95 nM.
Compound `CCCN(C(=O)c1cccnc1N(C)C)C1CC2(C1)CN(S(=O)(=O)c1cc(C)ccc1F)C2` [Example 427] came in with an IC50 of 52 nM. This IC50 is about 1.8-fold lower than that of the compound before.
`CCCN(C(=O)c1ccnc2[nH]ccc12)C1CC2(C1)CN(S(=O)(=O)c1cc(C)ccc1F)C2` [Example 428]: the IC50 was determined as 14 nM.
The figure for `CCCN(C(=O)c1cccnc1NC1CC1)C1CC2(C1)CN(S(=O)(=O)c1cc(C)ccc1F)C2` [Example 429] is 14 nM; for `CCCN(C(=O)c1cccc2[nH]c(C)nc12)C1CC2(C1)CN(S(=O)(=O)c1cc(C)ccc1F)C2` [Example 430] it is 48 nM.
With `CCCN(C(=O)c1nc2ccccc2[nH]1)C1CC2(C1)CN(S(=O)(=O)c1cc(C)ccc1F)C2` [Example 431], half-maximal inhibition (IC50) required 347 nM.
`CC1CCCNC(=O)N1C1CC2(C1)CN(S(=O)(=O)c1ccccc1F)C2` (stereo not drawn) [Example 432, 1-[2-(2-fluorophenyl)sulfonyl-2-azaspiro[3.3]heptan-6-yl]-7-methyl-1,3-diazepan-2-one] had an IC50 of 344 nM.
The compound `CC1CCOC(=O)N1C1CC2(C1)CN(S(=O)(=O)c1ccccc1F)C2` (stereo not drawn) [Example 433, 3-[2-(2-fluorophenyl)sulfonyl-2-azaspiro[3.3]heptan-6-yl]-4-methyl-1,3-oxazinan-2-one] came in with an IC50 of 868 nM.
The figure for `CC1CCNC(=O)N1C1CC2(C1)CN(S(=O)(=O)c1ccccc1F)C2` (stereo not drawn) [Example 434, 1-[2-(2-fluorophenyl)sulfonyl-2-azaspiro[3.3]heptan-6-yl]-6-methyl-1,3-diazinan-2-one] is 279 nM; for `C[C@@H]1CNC(=O)N1C1CC2(C1)CN(S(=O)(=O)c1ccccc1F)C2` [Example 435, (5R)-1-[2-(2-fluorophenyl)sulfonyl-2-azaspiro[3.3]heptan-6-yl]-5-methylimidazolidin-2-one] it is 492 nM.
The compound `CC1CSCC(=O)N1C1CC2(C1)CN(S(=O)(=O)c1ccccc1F)C2` (stereo not drawn) [Example 441, 4-[2-(2-fluorophenyl)sulfonyl-2-azaspiro[3.3]heptan-6-yl]-5-methylthiomorpholin-3-one] had an IC50 of 247 nM.
The compound `C[C@@H]1CCNCC(=O)N1C1CC2(C1)CN(S(=O)(=O)c1ccccc1F)C2` [Example 442, (7R)-1-[2-(2-fluorophenyl)sulfonyl-2-azaspiro[3.3]heptan-6-yl]-7-methyl-1,4-diazepan-2-one] displayed a half-inhibitory concentration (IC50) of 551 nM.
With `C[C@@H]1CCN(CC2CC2)CC(=O)N1C1CC2(C1)CN(S(=O)(=O)c1ccccc1F)C2` [Example 443, (7R)-4-(cyclopropylmethyl)-1-[2-(2-fluorophenyl)sulfonyl-2-azaspiro[3.3]heptan-6-yl]-7-methyl-1,4-diazepan-2-one] the figure was 157 nM.
As for `C[C@@H]1CCN(C)CC(=O)N1C1CC2(C1)CN(S(=O)(=O)c1ccccc1F)C2` [Example 444], the IC50 came to 789 nM.
`C[C@@H]1CCN(Cc2ccccc2)CC(=O)N1C1CC2(C1)CN(S(=O)(=O)c1ccccc1F)C2` [Example 446] gave an IC50 of 171 nM. Against the preceding compound, the IC50 is about 4.6-fold lower.
As for `C[C@@H]1CCN(C2CCOCC2)CC(=O)N1C1CC2(C1)CN(S(=O)(=O)c1ccccc1F)C2` [Example 447], the IC50 came out at 403 nM.
With `C[C@@H]1CCN(CCC(F)(F)F)CC(=O)N1C1CC2(C1)CN(S(=O)(=O)c1ccccc1F)C2` [Example 448] the figure was 474 nM; with `C[C@@H]1CCN(C(=O)c2cc[nH]n2)CC(=O)N1C1CC2(C1)CN(S(=O)(=O)c1ccccc1F)C2` [Example 449], 65 nM; with `C[C@@H]1CCN(C(=O)c2cccs2)CC(=O)N1C1CC2(C1)CN(S(=O)(=O)c1ccccc1F)C2` [Example 450], 81 nM.
With `C[C@@H]1CCN(C(=O)c2ccc3ccccc3c2)CC(=O)N1C1CC2(C1)CN(S(=O)(=O)c1ccccc1F)C2` [Example 451] the figure was 76 nM; with `C[C@@H]1CCN(C(=O)C2(F)CC2)CC(=O)N1C1CC2(C1)CN(S(=O)(=O)c1ccccc1F)C2` [Example 452], 88 nM; with `COCCC(=O)N1CC[C@@H](C)N(C2CC3(C2)CN(S(=O)(=O)c2ccccc2F)C3)C(=O)C1` [Example 453], 348 nM.
The figure for `C[C@@H]1CCN(C(=O)c2ccccc2)CC(=O)N1C1CC2(C1)CN(S(=O)(=O)c1ccccc1F)C2` [Example 454] is 70 nM.
Take `C[C@@H]1CCN(S(C)(=O)=O)CC(=O)N1C1CC2(C1)CN(S(=O)(=O)c1ccccc1F)C2` [Example 455, (7R)-1-[2-(2-fluorophenyl)sulfonyl-2-azaspiro[3.3]heptan-6-yl]-7-methyl-4-methylsulfonyl-1,4-diazepan-2-one]: it took 291 nM to reach half-maximal inhibition (IC50). This IC50 lies about 4.2-fold higher than the previous one.
The figure for `C[C@@H]1CCN(c2ccccn2)CC(=O)N1C1CC2(C1)CN(S(=O)(=O)c1ccccc1F)C2` [Example 456, (7R)-1-[2-(2-fluorophenyl)sulfonyl-2-azaspiro[3.3]heptan-6-yl]-7-methyl-4-pyridin-2-yl-1,4-diazepan-2-one] is 90 nM.
Consider `CC1CCOCC(=O)N1C1CC2(C1)CN(S(=O)(=O)c1ccccc1F)C2` (stereo not drawn) [Example 457, 4-[2-(2-fluorophenyl)sulfonyl-2-azaspiro[3.3]heptan-6-yl]-5-methyl-1,4-oxazepan-3-one], for which the IC50 turned out to be 171 nM.
As to `C[C@@H]1COCC(=O)N1C1CC2(C1)CN(S(=O)(=O)c1ccccc1F)C2` [Example 458, (5R)-4-[2-(2-fluorophenyl)sulfonyl-2-azaspiro[3.3]heptan-6-yl]-5-methylmorpholin-3-one], inhibition was half-maximal at 280 nM (IC50).
`CC1CCCCC(=O)N1C1CC2(C1)CN(S(=O)(=O)c1ccccc1F)C2` (stereo not drawn) [Example 459, 1-[2-(2-fluorophenyl)sulfonyl-2-azaspiro[3.3]heptan-6-yl]-7-methylazepan-2-one]: the IC50 is 176 nM.
Turning to `C[C@@H]1COCCC(=O)N1C1CC2(C1)CN(S(=O)(=O)c1ccccc1F)C2` [Example 460, (3R)-4-[2-(2-fluorophenyl)sulfonyl-2-azaspiro[3.3]heptan-6-yl]-3-methyl-1,4-oxazepan-5-one], the midpoint of inhibition, the IC50, lay at 424 nM.

The values above are taken from patent US20260132127A1, “NOVEL SPIRO COMPOUND” (MITSUBISHI TANABE PHARMA CORPORATION, priority 2021, published 2026).
